Experimental data taken from ChEMBL document CHEMBL4706540, “Targeting estrogen receptor α for degradation with PROTACs: A promising approach to overcome endocrine resistance” (Eur J Med Chem, 2020).

Experiments:
[1] = system: MCF7; test: Antiproliferative activity against human MCF7 cells incubated for 72 hrs by crystal violet staining based assay; type: functional, cell-based; settings: MCF7, 72 h
[2] = target: T1, Estrogen receptor (Homo sapiens, UniProt P03372); test: Induction of XIAP-mediated estrogen receptor alpha degradation in human MCF7 cells incubated for 4 hrs by western blot analysis; type: cell-based
T1 sequence (P03372 whole entry): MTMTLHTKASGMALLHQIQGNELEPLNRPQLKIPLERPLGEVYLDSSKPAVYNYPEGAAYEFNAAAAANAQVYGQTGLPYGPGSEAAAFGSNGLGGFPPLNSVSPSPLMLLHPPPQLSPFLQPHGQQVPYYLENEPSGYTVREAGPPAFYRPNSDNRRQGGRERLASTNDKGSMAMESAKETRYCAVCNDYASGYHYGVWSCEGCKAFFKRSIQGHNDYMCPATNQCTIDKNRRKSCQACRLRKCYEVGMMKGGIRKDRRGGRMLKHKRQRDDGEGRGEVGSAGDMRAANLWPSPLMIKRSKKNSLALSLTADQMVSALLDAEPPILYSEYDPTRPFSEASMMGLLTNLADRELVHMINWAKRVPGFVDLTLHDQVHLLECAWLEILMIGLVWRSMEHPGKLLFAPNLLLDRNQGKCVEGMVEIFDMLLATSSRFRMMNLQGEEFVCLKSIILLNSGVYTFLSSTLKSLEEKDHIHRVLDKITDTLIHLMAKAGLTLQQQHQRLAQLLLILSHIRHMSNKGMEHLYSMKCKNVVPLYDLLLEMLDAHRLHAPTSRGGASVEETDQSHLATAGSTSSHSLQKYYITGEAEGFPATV

[3] = system: T47D; test: Antiproliferative activity against human T47D cells incubated for 72 hrs by crystal violet staining based assay; type: functional, cell-based
[4] = system: MCF7; test: Induction of IAP-mediated estrogen receptor alpha degradation in human MCF7 cells at <1 uM by western blot analysis relative to control; type: cell-based; settings: dose microM <1
[5] = target: T2, von Hippel-Lindau disease tumor suppressor/Estrogen receptor (Homo sapiens, UniProt P03372+P40337); test: Induction of VHL-mediated ERalpha degradation in human MCF7 cells assessed as maximum degradation by western blot analysis relative to control; type: cell-based
Target sequence in this assay (P40337 whole entry, looked up, one chain of several): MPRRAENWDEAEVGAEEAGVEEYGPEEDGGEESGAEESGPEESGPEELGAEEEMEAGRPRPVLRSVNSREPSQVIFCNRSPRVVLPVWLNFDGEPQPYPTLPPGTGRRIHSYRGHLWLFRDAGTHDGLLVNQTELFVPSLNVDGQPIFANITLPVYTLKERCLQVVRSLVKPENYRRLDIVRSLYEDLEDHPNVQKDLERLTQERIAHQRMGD

[6] = system: T47D; test: Antiproliferative activity against human T47D cells incubated for 6 days with replacement of medium every 2 to 3 days by MTT assay relative to control; type: functional; settings: time 6 day
[7] = system: MCF7; test: Antiproliferative activity against human MCF7 cells incubated for 6 days with replacement of medium every 2 to 3 days by MTT assay relative to control; type: functional; settings: time 6 day
[8] = system: MCF7; test: Antiproliferative activity against human MCF7 cells incubated for 6 days with replacement of medium every 2 to 3 days by MTT assay; type: functional, cell-based
[9] = system: T47D; test: Antiproliferative activity against human T47D cells incubated for 6 days with replacement of medium every 2 to 3 days by MTT assay; type: functional, cell-based
[10] = target: T2, von Hippel-Lindau disease tumor suppressor/Estrogen receptor; test: Induction of VHL-mediated ERalpha degradation in human MCF7 cells by western blot analysis; type: cell-based
Target sequence in this assay (P40337 whole entry, one chain of several): as the sequence (P40337 whole entry, looked up, one chain of several) above

[11] = system: MCF7; test: Growth inhibition of human MCF7 cells harboring ER D538G mutant incubated for 5 days by PrestoBlue cell viability assay; type: functional, cell-based; settings: MCF7, 120 h
[12] = system: MCF7; test: Growth inhibition of human MCF7 cells harboring ER Y537S mutant incubated for 5 days by PrestoBlue cell viability assay; type: functional, cell-based; settings: MCF7, 120 h
[13] = system: MCF7; test: Growth inhibition of human MCF7 cells harboring wild type estrogen receptor incubated for 5 days by PrestoBlue cell viability assay; type: functional, cell-based; settings: MCF7, 120 h
[14] = target: T2, von Hippel-Lindau disease tumor suppressor/Estrogen receptor; test: Induction of VHL-mediated ERalpha degradation in human T47D cells assessed as maximum degradation by western blot analysis relative to control; type: cell-based
Target sequence in this assay (P40337 whole entry, looked up, one chain of several): as above

[15] = target: T2, von Hippel-Lindau disease tumor suppressor/Estrogen receptor; test: Induction of VHL-mediated ERalpha degradation in human T47D cells by western blot analysis; type: cell-based
Target sequence in this assay (P40337 whole entry, one chain of several): as the sequence (P40337 whole entry, looked up, one chain of several) above

Row | SMILES | DC50 [2] [nM] | Imax [5] [%] | Imax [6] [%] | Imax [7] [%] | IC50 [8] [nM] | IC50 [9] [nM] | DC50 [10] [nM] | further results
1 | CCC(=C(c1ccc(O)cc1)c1ccc(OCCN(C)C(=O)COCCOCCOCCOc2cccc(C(=O)c3csc([C@@H]4CCCN4C(=O)[C@@H](NC(=O)[C@H](C)NC)C4CCCCC4)n3)c2)cc1)c1ccccc1 | < 3 | – | – | – | – | – | – | IC50 [1]: 15.6 nM; IC50 [3]: 9.6 nM
2 | CN[C@@H](C)C(=O)N[C@H](C(=O)N1Cc2cc(OCCOCCOCCOCCOc3ccc(Oc4c(-c5ccc(O)cc5)sc5cc(O)ccc45)cc3)ccc2C[C@H]1C(=O)N[C@@H]1CCCc2ccccc21)C(C)(C)C | – | – | – | – | – | – | – | Activity [4]: > 50%
3 | Cc1ncsc1-c1ccc([C@H](C)NC(=O)[C@@H]2C[C@@H](O)CN2C(=O)[C@@H](NC(=O)CCCCOc2ccc(CNNC(=O)c3ccc(C(=O)c4c(-c5ccc(O)cc5)sc5cc(O)ccc45)cc3)cc2)C(C)(C)C)cc1 | – | 98 | 78 | 69 | 13.2 | 17 | 1.13 | –
4 | CCN(CCCCCCCC(=O)N[C@H](C(=O)N1C[C@H](O)C[C@H]1C(=O)N[C@@H](C)c1ccc(-c2scnc2C)cc1)C(C)(C)C)CCOc1ccc(C(=O)c2c(-c3ccc(O)cc3)sc3cc(O)ccc23)cc1 | – | – | – | – | – | – | – | IC50 [11]: 6.1 nM; IC50 [12]: 10.5 nM; IC50 [13]: 0.8 nM
5 | CCC(=C(c1ccc(O)cc1)c1ccc(OCCN(C)C(=O)COCCOCCOCCOc2cccc(O[C@H]3C[C@@H](C(=O)N[C@@H]4CCCc5ccccc54)N(C(=O)[C@@H](NC(=O)[C@H](C)NC)C4CCCCC4)C3)c2)cc1)c1ccccc1 | < 3 | – | – | – | – | – | – | –
6 | Cc1ncsc1-c1ccc([C@H](C)NC(=O)[C@@H]2C[C@@H](O)CN2C(=O)[C@@H](NC(=O)CCCCOc2ccc(/C=N/NC(=O)c3ccc(C(=O)c4c(-c5ccc(O)cc5)sc5cc(O)ccc45)cc3)cc2)C(C)(C)C)cc1 | – | 95 | 73 | 60 | 69.1 | 65.2 | 7.7 | Imax [14]: > 95%; DC50 [15]: 10.3 nM
